Converted amounts (≈) assume the structure as drawn.
tested on: Mycobacterium tuberculosis; experiment: Antimycobacterial activity against Mycobacterium tuberculosis H37Rv by agar dilution method; format: functional

SMILES | MIC [µM]
COc1cc2c(cc1OC)C(=O)C(C(=O)c1ccc(Br)cc1)C2 (stereo not drawn) | 4.94 (≈ 1.85 µg/mL)
COc1cc2c(cc1OC)C(=O)C(C(=O)c1ccccc1Cl)C2 (stereo not drawn) | 1.82 (≈ 0.602 µg/mL)
COc1cc2c(cc1OC)C(=O)C(C(=O)c1ccc(Cl)cc1)C2 (stereo not drawn) | 1.52 (≈ 0.503 µg/mL)
COc1cc2c(cc1OC)C(=O)C(C(=O)c1ccc(F)cc1)C2 (stereo not drawn) | 0.1 (≈ 0.0314 µg/mL)
NNC(=O)c1ccncc1 [ISONIAZID] | 0.75 (≈ 0.103 µg/mL)
COc1cc2c(cc1OC)C(=O)C(C(=O)c1cc(OC)c(OC)c(OC)c1)C2 (stereo not drawn) | > 6.25
COc1cc2c(cc1OC)C(=O)C(C(=O)c1ccc(C#N)cc1)C2 (stereo not drawn) | > 6.25
COc1cc2c(cc1OC)C(=O)C(C(=O)c1c(Cl)cccc1Cl)C2 (stereo not drawn) | 2.48 (≈ 0.906 µg/mL)
COc1ccc(C(=O)C2Cc3cc(OC)c(OC)cc3C2=O)cc1 (stereo not drawn) | > 6.25
COc1cc2c(cc1OC)C(=O)C(C(=O)c1ccc(N(C)C)cc1)C2 (stereo not drawn) | 5.94 (≈ 2.02 µg/mL)
COc1ccc(C(=O)C2Cc3cc(OC)c(OC)cc3C2=O)cc1OC (stereo not drawn) | > 6.25
COc1cc2c(cc1OC)C(=O)C(C(=O)c1ccccc1)C2 (stereo not drawn) | 6.62 (≈ 1.96 µg/mL)
COc1cc2c(cc1OC)C(=O)C(C(=O)c1cccc([N+](=O)[O-])c1)C2 (stereo not drawn) | 3.46 (≈ 1.18 µg/mL)

From ChEMBL document CHEMBL1153711, “Synthesis and antimycobacterial evaluation of novel 5,6-dimethoxy-1-oxo-2,5-dihydro-1H-2-indenyl-5,4-substituted phenyl methanone analogues” (Bioorg Med Chem Lett, 2009)
